# Values of other authors in patent publication US9168226B1, “Injectable particle” (priority 2015, dated 2015).
# Where two headings read alike, the source gives them in different places.
smiles,measurement,setting,value
"Cc1nc(Nc2ncc(C(=O)Nc3c(C)cccc3Cl)s2)cc(N2CCN(CCO)CC2)n1 [dasatinib, Dasatinib]",aqueous solubility,pH 2.6,18400 µg/mL
same,aqueous solubility,pH 6.0,8 µg/mL
